Our source for the viability, T/C and IC50 values is PubChem BioAssay AID1963857 (Molecular Pharmacology Branch, DTP, NCI, 2024).

In the assay the test system is K24384-001-R-PDC KRAS patient-derived spheroid viability. Kind of assay: Anticancer human tumor K24384-001-R-PDC patient-derived pancreatic adenocarcinoma cell line growth inhibition [KRAS2]. The note with it: spheroids with HUVEC and MSC; for viability, T/C: stronger effect = lower value. From the text: Multicellular complex tumor spheroid response to RAS pathway inhibitors in combination with a targeted agents in patient-derived cell lines with oncogenic KRAS variants from multiple cancer types
A high-throughput screen of multi-cell type tumor spheroids was designed to identify active combinations of targeted small molecules and KRAS pathway inhibitors. Complex spheroids include a stromal component modeled by human endothelial cells (HUVEC) and fibroblasts modeled by human mesenchymal stem cells (MSCs). The concentration ranges selected for each drug and investigational agent were based upon clinically achievable concentrations if the clinical Cmax of the agent was known.
Compounds. The drugs and investigational agents: BI-3406 (NSC825286), BAY-293 (NSC824723), batoprotafib (TNO155; NSC825523), sotorasib (AMG 510; NSC818433), MRTX1257 (NSC819558), elimusertib (BAY 1895344; NSC800525), molibresib (GSK525762; NSC774829), temuterkib (LY3214996; NSC803410), venetoclax (NSC766270), alisertib (NSC759677), olaparib (NSC753686), talazoparib (NSC767125), erdafitinib (NSC781556), ipatasertib (NSC767898), cabozantinib (NSC761068), nintedanib (NSC756659), abemaciclib (NSC768073), docetaxel (NSC628503), trametinib (NSC758246), and sapanisertib (NSC764658) were obtained from the National Cancer Institute (NCI) Developmental Therapeutics Program Chemical Repository. The FDA-approved anticancer drug set is available from the Developmental Therapeutics Program. […] The stock solutions were prepared in dimethyl sulfoxide (DMSO, Sigma-Aldrich, St. Louis, MO, cat. D2650) at 800-fold the tested concentration and stored at -70 degrees C prior to their use. All drugs and investigational agents were tested over a range starting from a high concentration at or near the clinical Cmax and decreasing in half-log increments. If the clinical Cmax for an agent had not been determined, the highest concentration tested was 10 microM.
Cell Culture. All cells were maintained in an incubator at 37 degrees C and 5% CO2 with 95% humidity. The PDC lines were cultured according to standard operating procedures established by the NCI PDMR (https://pdmr.cancer.gov/sops/default.htm). Briefly, all PDCs were thawed and cultured in Matrigel-coated flasks prepared with a working solution of 1X Ham's F-12 nutrient mix, without supplementation (Invitrogen, Waltham, MA, cat. 11765054), 100 U/mL penicillin-streptomycin (Invitrogen, cat. 15140122), and 2.5% Matrigel (Corning Inc., Corning, NY, cat. 354248) for the first three passages. All PDCs were cultured in complete DMEM/F-12 media containing advanced DMEM/F-12 (Invitrogen, cat. 12634028), 4.9% defined fetal bovine serum, heat inactivated (HyClone Laboratories Inc., Logan, UT, cat. SH30070.03HI), 389 ng/mL hydrocortisone (Sigma-Aldrich, cat. H4001), 9.7 ng/mL human EGF recombinant protein (Invitrogen, cat. PHG0313), 23.4 microg/mL adenine (Sigma-Aldrich, cat. A2786), 97.3 U/mL penicillin-streptomycin (Invitrogen, cat. 15140122), 1.9 mM L-glutamine (Invitrogen, cat. 25030081), and 9.7 microM Y-27632 dihydrochloride (Tocris Bioscience, Bristol, United Kingdom, cat. 1254). The PDCs were cultured in complete DMEM/F12 media without 9.7 microM Y-27632 dihydrochloride for at least two passages prior to the screen. The established cell line HOP-62 was cultured in RPMI 1640 medium, HEPES (Invitrogen, cat. 22400105) with 10% defined fetal bovine serum (HyClone Laboratories Inc., cat. SH30070.03) and 2 mM L-glutamine (Invitrogen, cat. 25030081). The pooled donor HUVEC were cultured in endothelial cell growth medium 2 (PromoCell, Heidelberg, Germany, cat. C-22011) and the hMSC were cultured in mesenchymal stem cell growth medium 2 (PromoCell, cat. C-28009). For all experiments, HUVEC and hMSC were used at passages </=5, while the malignant cell lines were used at passages </=15. […]

For orientation: viability, T/C means the ratio of treated to control. Broadly, the IC50 is the midpoint of a concentration-inhibition curve.

Several values for one entry are separate records, joined by “and”; a condition that tells them apart may be missing. Equal entries are not always repeated.
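Also: spheroids exposed to agents for 7 days before readout.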

Take `Cn1nccc1Nc1nccc(-c2cc3c(s2)C(C)(C)N(CCN2CCOCC2)C3=O)n1`: the viability, T/C (compound 0.0316 µM) was 81.5% [middle of 5 runs]; the viability, T/C (compound 0.1 µM) was 56.3% [middle of 5 runs]; the viability, T/C (compound 0.316 µM) was 28.4% [middle of 5 runs]; the viability, T/C (compound 1 µM) is 20.7% (3×) and 19.1% and 16.6%; the viability, T/C (compound 3.16 µM) is 13.7% [middle of 5 runs]; the viability, T/C (compound 10 µM) is 11.6% [middle of 5 runs]. In addition, the IC50 (curve of compound) was 127 nM [middle of 5 runs].
